Test results as given in US3987180A, “1-Propyl-imidazolyl antimycotic compositions and methods of treating mycoses” (Bayer Aktiengesellschaft, priority 1973, dated 1976).
≈ marks a conversion by molar mass, not a printed value.

How the values were obtained:
[1] = system: Trichophyton mentagrophytes; assay: Antimycotic activity in vitro (series dilution test), Trichophyton mentagrophytes; format: cell-based; conditions: nutrient medium, 28° C, 24 to 96 hours, read-out: Minimum inhibitory concentration (MIC), Trichophyton mentagrophytes
Candida albicans = assay: Antimycotic activity in vitro (series dilution test), Candida albicans; format: cell-based; conditions: nutrient medium, 28° C, 24 to 96 hours, read-out: Minimum inhibitory concentration (MIC), Candida albicans
Penicillium commune = assay: Antimycotic activity in vitro (series dilution test), Penicillium commune; format: cell-based; conditions: nutrient medium, 28° C, 24 to 96 hours, read-out: Minimum inhibitory concentration (MIC), Penicillium commune
[2] = system: Trichophyton mentagrophytes; assay: Topical application against trichophytosis in guinea pigs; format: in vivo; conditions: 1% strength solution applied locally for 11 to 14 days
Description: a. Topical application against trichophytosis in guinea pigs.
A 1% strength solution of the active compounds in a dimethylsulphoxide/glycerol/water mixture (1:3:6) or in polyethylene glycol 400 was applied locally for 11 to 14 days after the trichophytosis (pathogen: Trichophyton mentagrophytes) had been produced experimentally.

Trichophyton quinckeanum = assay: Oral administration against Quinckeanum trichophytosis in white mice; format: in vivo; conditions: 100 mg/kg orally twice daily up to the eighth day of the infection
Experimental: b. Oral administration against Quinckeanum trichophytosis in white mice By using doses of 100 mg/kg of body weight, administered orally twice daily up to the eighth day of the infection, it was possible to suppress the development of the Quinckeanum infection in mice.

Aspergillus niger = assay: Antimycotic activity in vitro (series dilution test), Aspergillus niger; format: cell-based; conditions: nutrient medium, 28° C, 24 to 96 hours, read-out: Minimum inhibitory concentration (MIC), Aspergillus niger

Row | SMILES | MIC [1] | MIC (Candida albicans) | MIC (Penicillium commune) | Action (topical, trichophytosis in guinea pigs) [2] | Action against Trichophyton quinckeanum (Trichophyton quinckeanum) | MIC (Aspergillus niger)
1 | CC(C)(C)C(C)(O)C(Cn1ccnc1)Oc1ccc(Cl)cc1 (stereo not shown) [Example 9] | 8 µg/mL (≈ 24.8 µM) | 64 µg/mL (≈ 198 µM) | > 64 µg/mL | xx (healing of the infection inside 4-6 days after infection.) | xx (fewer than 30% of the animals showed symptoms of the infection.) | –
2 | CC(C)(C)C(O)(Cc1ccccc1)C(Cn1ccnc1)Oc1ccc(Cl)cc1 (stereo not shown) [Example 2, 1-(imidazol-1-yl)-2-(4-chlorophenoxy)-3-benzyl-3-hydroxy-4,4-dimethyl-pentane] | < 1 µg/mL | 64 µg/mL (≈ 160 µM) | > 64 µg/mL | – | – | > 64 µg/mL
3 | CC(C)(C)C(O)C(Cn1ccnc1)Oc1ccccc1Cl (stereo not shown) [Example 3] | 32 µg/mL (≈ 104 µM) | 64 µg/mL (≈ 207 µM) | > 64 µg/mL | – | – | –
4 | CC(C)(C)C(O)C(Cn1ccnc1)Oc1ccccc1 (stereo not shown) [Example 8] | 32 µg/mL (≈ 117 µM) | 64 µg/mL (≈ 233 µM) | > 64 µg/mL | – | – | –
5 | CC(C)(C)C(O)C(Cn1ccnc1)Oc1ccc(Cl)cc1Cl (stereo not shown) [Example 5] | 4 µg/mL (≈ 11.7 µM) | 64 µg/mL (≈ 186 µM) | > 64 µg/mL | – | – | 64 µg/mL (≈ 186 µM)
6 | CC(C)(C)C(O)C(Cn1ccnc1)Oc1ccc(F)cc1 (stereo not shown) [Example 6] | 64 µg/mL (≈ 219 µM) | 64 µg/mL (≈ 219 µM) | > 64 µg/mL | – | – | –
7 | Cc1cc(Cl)ccc1OC(Cn1ccnc1)C(O)C(C)(C)C (stereo not shown) [Example 7] | 4 µg/mL (≈ 12.4 µM) | 64 µg/mL (≈ 198 µM) | > 64 µg/mL | xx (healing of the infection inside 4-6 days after infection.) | xx (fewer than 30% of the animals showed symptoms of the infection.) | > 64 µg/mL
8 | CC(C)(C)C(O)C(Cn1ccnc1)Oc1cccc(Cl)c1 (stereo not shown) [Example 4] | > 64 µg/mL | 64 µg/mL (≈ 207 µM) | > 64 µg/mL | – | – | –
9 | CC(C)(C)C(O)C(Cn1ccnc1)Oc1ccc(Cl)cc1 (stereo not shown) [Example 1, 1-(imidazol-1-yl)-2-(4-chlorophenoxy)-3-hydroxy-4,4-dimethyl-pentane] | 32 µg/mL (≈ 104 µM) | 64 µg/mL (≈ 207 µM) | > 64 µg/mL | – | – | –
